Test results published in patent US9289412B2, “Role of limonoid compounds as neuroprotective agents” (The Johns Hopkins University, priority 2006, dated 2016).
Like-named read-outs stand apart in the source and are kept apart here.

System: rat mixed hippocampal cultures
Assay: 3-NP neurotoxicity assay, MTT viability, rat mixed hippocampal cultures
Type: cell-based
Settings: for inhibition at 10 µM: Rattus norvegicus
Method: For example, a cell viability assay can be used in a preliminary screen on a large series of compounds each of which is tested at a fixed concentration. In some embodiments, mixed hippocampal cell cultures are prepared as described in, e.g., Haughey et al. (1999), J Neurochem, 73(4):1363-1374, and Haughey et al (2004), J Neurosci, 24(1):257-268. Subsequently, the cultures are pretreated for one hour in the presence of a candidate neuroprotective agent and then incubated with a cytotoxic agent for about 18 hours. Examples of cytotoxic agents include, but are not limited to, oxidative stressors (e.g., 3-nitropropionic acid (3-NP) or H2O2), excitatory amino acids (e.g., kainate), or neurotoxic proteins (e.g., Hiv Tat, or Aβ peptides). […] The level of protection (“percent protection”) provided by the test compound at a given test concentration in vitro can be expressed as: […]
A variety of methods for determining cell viability may be used. In some embodiments, cell viability is assessed based on the “MTT” assay method described in Mosmann (1983), J Immunol Methods, 65(1-2):55-63, or a variant thereof. This assay is based on the ability of a mitochondrial dehydrogenase enzyme from viable cells to cleave the tetrazolium rings of the pale yellow MTT and form dark blue formazan crystals, which are trapped in cells and readily quantified by ELISA spectrophotometry.
We sought to evaluate the protective efficacy of a number of modified terpenoid compounds against the against many different neurotoxins, ranging from the chemotoxic 6-OHDA, NMDA, 3-nitropropionic acid (3-NP), and viral proteins such as Tat and gp120. Thus, we established an in vitro neuroprotection assay using rat mixed hippocampal cultures, in which we evaluated the protective efficacy of neuroprotective compounds disclosed herein. The oxidative stressor 3-NP was used to elicit toxicity in the rat hippocampal cultures to mimic the oxidative damage, reactive oxygen species production and ensuing neurodegeneration resulting from HIV infection. Another measure of neurotoxicity which results from HIV infection was evaluated by exposure of the hippocampal cultures to HIV-1 Tat (Li et al (2005), Neurotox Res, 8(1-2): 119-134).
Rat mixed hippocamal neuronal cultures were generated from freshly dissected rat hippocampi (embryonic day 18) in neurobasal media containing 5% fetal bovine serum and 2% B27 supplement. The cells were plated into 96 well plates at a density of 4×10^5 cells/mL and routinely used on days 11-14 following culturing. Cell viability was assessed with MTT [3-(4,5-dimethylthiazol-2-yl)-2,5-diphenyltetrazolium bromide] assay. The MTT assay is based on the ability of a mitochondrial dehydrogenase enzyme from viable cells to cleave the tetrazolium rings of the pale yellow MTT and form dark blue formazan crystals. See Mosmann (1983), J Immunol Methods, 65(1-2):55-63. These crystals are largely impermeable to cell membranes, and thus accumulate within healthy cells. The resultant formazan precipitates are solubilized with DMSO and read on a multiwell scanning spectrophotometer (ELISA reader). The number of surviving cells is directly proportional to the level of the formazan product created.
Mixed hippocampal cultures were incubated with 3-NP (0.5-10 mM) for 18 hours and then assessed for viability using an MTT assay.
Cultures were preincubated with GPI 1046 or Resveratrol for one hour prior to an 18 hour exposure to 3 mM 3-NP. […] The same neuroprotective compounds were evaluated for efficacy against HIV-1 Tat protein toxicity using the same 1 hour preincubation protocol.

[1] = Table 2, vs 3 mM 3-NP 18 h, 1 h preincubation, test concentration (10 μM), read-out: % Protection
[2] = Table 3, 3 mM 3-NP 18 h, 1 h preincubation, test concentration (10 μM), read-out: % Protection vs 3-NP
[3] = Table 2, vs 3 mM 3-NP 18 h, 1 h preincubation, test concentration (10 μM)
[4] = Table 3, 3 mM 3-NP 18 h, 1 h preincubation, test concentration (10 μM)

| Compound | inhibition at 10 µM [1] [%] | inhibition at 10 µM [2] [%] | also measured |
| --- | --- | --- | --- |
| CC1(C)C(=O)C=C[C@@]2(C)C1CC(=O)[C@]1(C)C2CC[C@@]2(C)[C@H](c3ccoc3)OC(=O)[C@H]3O[C@]321 (stereo partly drawn) [DEACETOXY-7-OXOGEDUNIN] | 38 | 38 |  |
| CCC(C)C(=O)O[C@@H]1C[C@@]2(C)[C@H](c3ccoc3)OC(=O)CC23OC2(C)O[C@]14[C@]1(C)[C@@H](CC(=O)OC)C5(C)CC1(O)[C@](O)(C5OC(=O)C1(C)OC1C)[C@@H](OC(C)=O)[C@]34O2 (stereo partly drawn) [UTILIN] |  | 16 |  |
| CC(=O)O[C@H]1C[C@@H](OC(C)=O)C(C)(C)C2C[C@H](OC(C)=O)[C@]3(C)C(CC[C@@]4(C)[C@H](c5ccoc5)OC(=O)[C@H]5O[C@]543)[C@]21C (stereo partly drawn) [7-EPIKHIVORIN] | 65 |  |  |
| CC1(C)C2CC(=O)[C@]3(C)C(CC[C@@]4(C)[C@H](c5ccoc5)OC(=O)[C@H]5O[C@]543)[C@@]2(C)C=C[C@@H]1O (stereo partly drawn) [3beta-HYDROXYDEOXYDESACETOXY-7-OXOGEDUNIN] | 30 |  |  |
| C=C1C2CC[C@@]3(C)[C@H](c4ccoc4)OC(=O)C[C@]13OC1CC(=O)C(C)(C)C(CC(=O)OC)C12C (stereo partly drawn) [[…], METHYL ESTER] | 33 | 33 | protection against 3-NP (FIG. 5) (3 mM 3-NP, approximate values): about 50% |
| C=C1C2CC[C@]3(C)[C@@H](c4ccoc4)OC(=O)CC13O[C@H]1CC(O)C(C)(C)C(CC(=O)OC)[C@@]21C (stereo partly drawn) [3alpha-HYDROXY-3-DEOXYANGOLENSIC ACID METHYL ESTER] | 35 |  |  |
| CC(=O)O[C@@H]1CC2C(C)(C)C(=O)C3OC3[C@]2(C)C2CC[C@@]3(C)[C@H](c4ccoc4)OC(=O)C4OC43[C@@]21C (stereo partly drawn) [EPOXYGEDUNIN] |  |  | % Protection [3]: 69% |
| KHAYANTHONE |  |  | % Protection vs 3-NP [4]: 36% |
| CC1(C)C(=O)C=C[C@@]2(C)C1C[C@@H](O)[C@]1(C)C2CC[C@@]2(C)[C@H](c3ccoc3)OC(=O)[C@H]3O[C@]321 (stereo partly drawn) [DEACETYLGEDUNIN] |  | 19 | % Protection [3]: 19% |
| CC1(C)C(=O)C=C[C@@]2(C)C1CC(=O)[C@@]1(C)C3=CC(=O)O[C@@H](c4ccoc4)[C@]3(C)CCC12 (stereo partly drawn) [7-DEACETOXY-7- OXODEOXYGEDUNIN, 7-DEACETOXY-7-OXODEOXYGEDUNIN] | 24 |  |  |
| CC(=O)O[C@H]1CC[C@]2(C)[C@H]3CC[C@@]4(C)[C@H](c5ccoc5)OC(=O)[C@H]5O[C@]54[C@]3(C)[C@H](OC(C)=O)C[C@H]2C1(C)C [3beta- ACETOXYDEOXODIHYDRO- GEDUNIN, 3beta-ACETOXYDEOXODIHYDROGEDUNIN] | 39 | 39 |  |
| C=C1C2CC[C@@]3(C)[C@H](c4ccoc4)OC(=O)C[C@]13O[C@H]1CC(=O)C(C)(C)[C@H](C(O)C(=O)OC)[C@@]21C (stereo partly drawn) [6-HYDROXYANGOLENSIC ACID METHYL ESTER] | 26 | 26 |  |
| CC(=O)OC1C[C@H](OC(C)=O)[C@@]2(C)C(C[C@@H](OC(C)=O)[C@]3(C)C2CC[C@@]2(C)[C@H](c4ccoc4)OC(=O)[C@H]4O[C@]423)C1(C)C (stereo partly drawn) [KHIVORIN] | 70 |  | protection against 3-NP, in words (FIG. 5A) (3 mM 3-NP, 10 μM of Khivorin): nearly complete protection |
| CC(=O)O[C@H]1CC[C@@]2(C)C(C[C@@H](OC(C)=O)[C@@]3(C)C4=CC(=O)O[C@@H](c5ccoc5)[C@]4(C)CCC23)C1(C)C (stereo partly drawn) [3-DEOXO-3beta-ACETOXYDEOXYDIHYDROGEDUNIN] | 56 |  |  |
| CC(=O)O[C@@H]1CC[C@@]2(C)C(C[C@@H](OC(C)=O)[C@@]3(C)C4=CC(=O)O[C@@H](c5ccoc5)[C@]4(C)CCC23)C1(C)C (stereo partly drawn) [3alpha- ACETOXYDIHYDRODEOXY- GEDUNIN, 3alpha-ACETOXYDIHYDRODEOXYGEDUNIN] | 151 |  |  |
| COC(=O)C[C@H]1C(C)(C)[C@@H](OC(C)=O)[C@@H]2CC3=C4CC(=O)O[C@@H](c5ccoc5)[C@]4(C)CC[C@@H]3[C@@]1(C)C2=O [FISSINOLIDE] |  | 28 |  |
| CC(=O)O[C@@H]1CC2C(C)(C)[C@H](O)C=C[C@]2(C)C2CC[C@@]3(C)[C@H](c4ccoc4)OC(=O)C4OC43[C@@]21C (stereo partly drawn) [GEDUNOL] |  |  | % Protection [3]: 45% |

| Compound | inhibition at 10 µM [1] [%] | inhibition at 10 µM [2] [%] | also measured |
| --- | --- | --- | --- |
| CC(=O)O[C@@H]1CC2C(C)(C)C3(CC[C@]2(C)C2CC[C@@]4(C)[C@H](c5ccoc5)OC(=O)C5OC54[C@@]21C)SCCS3 (stereo partly drawn) [DIHYDROGEDUNIN ETHANEDITHIOKETAL] |  |  | % Protection [3]: 19% |
| CC(=O)O[C@H]1C[C@@H](O)C(C)(C)[C@@H]2C[C@@H](OC(C)=O)[C@]3(C)[C@H](CC[C@@]4(C)[C@@H](c5ccoc5)OC(=O)[C@H]5O[C@@]534)[C@@]12C [3-DEACETYLKHIVORIN] |  |  | % Protection vs 3-NP [4]: 7% |
| COC(=O)[C@@H]1OC(=O)C2OC23[C@@]1(C)CCC1[C@]2(C)C(C[C@@H](O)[C@]13C)C(C)(C)[C@H](OC(C)=O)C[C@@H]2OC(C)=O (stereo partly drawn) [DESACETYL (7)KHIVORINIC ACID, METHYL ESTER] |  |  | % Protection [3]: 58% |
| CC1(C)C2CC(=O)[C@]3(C)C(CC[C@@]4(C)[C@H](c5ccoc5)OC(=O)[C@H]5O[C@]543)[C@@]2(C)C(=O)C[C@H]1O (stereo partly drawn) [1,7-DIDEACETOXY-1,7-DIOXO-3-DEACETYLKHIVORIN] |  | 15 | % Protection [3]: 15% |
| CC(=O)OC1CC2C(C)(C)[C@H](OC(C)=O)C[C@H](OC(C)=O)[C@]2(C)C2CC[C@]3(C)C(=CC(=O)O[C@@H]3c3ccoc3)[C@]12C (stereo partly drawn) [DEOXYKHIVORIN] | 36 | 36 |  |
| C=C1[C@@H]([C@@]2(C)[C@@H](OC(C)=O)CC(=O)O[C@](C)(COC(C)=O)[C@@H]2C(=O)OC)[C@@H](OC=O)[C@H](OC(=O)[C@H](O)[C@H](C)CC)[C@@]2(C)[C@H](c3ccoc3)CC(=O)[C@]12O [PRIEURIANIN] |  |  | inhibition at 10 µM (18 h, read-out: % Protection vs 3-NP): 6% |
| COC(=O)C[C@H]1C(C)(C)[C@@H](OC(C)=O)[C@@H]2CC3C4CC(=O)O[C@@H](c5ccoc5)[C@]4(C)CCC3[C@@]1(C)C2=O (stereo partly drawn) [DIHYDROFISSINOLIDE] |  | 12 |  |
| CC(=O)O[C@@H]1CC2C(C)(C)[C@H](O)C[C@H](O)[C@]2(C)C2CC[C@]3(C)[C@@H](c4ccoc4)OC(=O)[C@H]4O[C@]43[C@@]21C (stereo partly drawn) [1,3-DIDEACETYLKHIVORIN] | 129 |  |  |
| KHAYASIN C |  |  | % Protection vs 3-NP [4]: 13% |
| CC(=O)O[C@@H]1CC2C(C)(C)C(=O)CC[C@]2(C)C2CC[C@@]3(C)[C@@H](c4ccoc4)OC(=O)C4OC43[C@@]21C (stereo partly drawn) [DIHYDROGEDUNIN] | 28 |  |  |
| COC(=O)C[C@H]1C(C)(C)C(=O)[C@@H]2CC3=C4CC(=O)O[C@@H](c5ccoc5)[C@]4(C)CC[C@@H]3[C@@]1(C)C2=O [MEXICANOLIDE] |  | 9 |  |
| CC(=O)O[C@@H]1CC2C(C)(C)C=CC(=O)[C@]2(C)C2CC[C@@]3(C)[C@H](c4ccoc4)OC(=O)C4OC43[C@@]21C (stereo partly drawn) [ISOGEDUNIN] | 50 |  |  |
| CC(=O)O[C@H]1C[C@@H](OC(C)=O)C(C)(C)C2C[C@@H](O)[C@]3(C)C(CC[C@@]4(C)[C@H](c5ccoc5)OC(=O)[C@H]5O[C@]543)[C@]21C (stereo partly drawn) [7-DEACETYLKHIVORIN] |  | 32 | % Protection [3]: 32% |
| COC(=O)C[C@H]1C(C)(C)C(=O)[C@@H]2CC3C4=CC(=O)O[C@@H](c5ccoc5)[C@]4(C)CC[C@@H]3[C@@]1(C)C2=O (stereo partly drawn) [CARAPIN] |  | 18 |  |
| CC1(C)C2CC(=O)[C@]3(C)C(CC[C@@]4(C)[C@H](c5ccoc5)OC(=O)C5OC543)[C@@]2(C)[C@@H](O)C[C@H]1O (stereo partly drawn) [1,3-DIDEACETYL-7-DEACETOXY-7-OXOKHIVORIN] |  | 15 | % Protection [3]: 15% |
| CC(=O)O[C@H]1CC[C@@]2(C)C(C[C@H](OC(C)=O)[C@@]3(C)C4=CC(=O)OC(c5ccoc5)[C@]4(C)CCC23)C1(C)C (stereo partly drawn) [3beta,7beta-DIACETOXYDEOXODEACETOXYDEOXYDIHYDROGEDUNIN] | 61 |  |  |
| CC(=O)OC1CC2C(C)(C)CCC[C@]2(C)C2CC[C@]3(C)C(=CC(=O)O[C@H]3c3ccoc3)[C@]12C (stereo partly drawn) [DEOXODEOXYDIHYDRO- GEDUNIN, DEOXODEOXYDIHYDROGEDUNIN] |  |  | % Protection [3]: 77% |
